pIC50: −log10 of the molar value.

The experiment deals with T1, Dimer of Gag-Pol polyprotein [489-587] (Human immunodeficiency virus 1, UniProt P12497).
T1 construct: 489-587
Briefly: Protease Inhibition Assay. To be noted: pH 6.2; 37 °C. As to the method:
For determination of IC50 values, HIV-1 protease was added to assay buffer containing inhibitor and the substrate (H-His-Lys-Ala-Arg-Val-Leu- (p-NO2) Phe-Glu-Ala-norleucine-Ser-NH2). The Leu- (p-NO2) Phe bond of the substrate was cleaved by the enzyme, and the substrate and products were separated by reversed-phase HPLC. Absorbance was measured at 220 nm, peak areas were determined, and percentage conversion to product was calculated.
Regarding `Cc1cc(SC2C(=O)CC(CCc3ccccc3)(c3ccc(OCCO)cc3)OC2=O)c(C(C)(C)C)cc1O` (stereo not drawn) [3-[(2-tert-butyl-4-hydroxy-5-methylphenyl)sulfanyl]-4-hydroxy-6-[4-(2-hydroxyethoxy)phenyl]-6-(2-phenylethyl)-5,6-dihydro-2H-pyran-2-one], the pIC50 was 8.43.

On to `Cc1cc(SC2C(=O)CC(CCc3ccccc3)(c3ccccc3)OC2=O)c(C(C)(C)C)cc1O` (stereo not drawn) [3-[(2-tert-butyl-4-hydroxy-5-methylphenyl)sulfanyl]-4-hydroxy-6-phenyl-6-(2-phenylethyl)-5,6-dihydro-2H-pyran-2-one], for which the pIC50 is 7.48.

Consider `COc1cc(C(C)(C)C)c(SC2C(=O)CC(CCc3ccccc3)(c3ccccc3)OC2=O)cc1C` (stereo not drawn) [3-[(2-tert-butyl-4-methoxy-5-methylphenyl)sulfanyl]-4-hydroxy-6-phenyl-6-(2-phenylethyl)-5,6-dihydro-2H-pyran-2-one], for which the pIC50 was 7.82.

On to `Cc1ccc(C(C)(C)C)c(SC2C(=O)CC(CCc3ccccc3)(c3ccc(O)cc3)OC2=O)c1` (stereo not drawn) [3-[(2-tert-butyl-5-methylphenyl)sulfanyl]-4-hydroxy-6-(4-hydroxyphenyl)-6-(2-phenylethyl)-5,6-dihydro-2H-pyran-2-one], for which the negative-log IC50 (pIC50) is 7.40.

`Cc1ccc(C(C)(C)C)c(SC2C(=O)CC(CCc3ccccc3)(c3ccc(OCCO)cc3)OC2=O)c1` (stereo not drawn) [3-[(2-tert-butyl-5-methylphenyl)sulfanyl]-4-hydroxy-6-[4-(2-hydroxyethoxy)phenyl]-6-(2-phenylethyl)-5,6-dihydro-2H-pyran-2-one] showed a pIC50 of 7.92.

For `Cc1cc(SC2C(=O)CC(CCc3ccccc3)(c3ccc(OCCO)cc3)OC2=O)c(C(C)(C)C)cc1OCCO` (stereo not drawn) [3-{[2-tert-butyl-4-(2-hydroxyethoxy)-5-methylphenyl]sulfanyl}-4-hydroxy-6-[4-(2-hydroxyethoxy)phenyl]-6-(2-phenylethyl)-5,6-dihydro-2H-pyran-2-one], the pIC50 was 8.19.

`Cc1cc(SC2C(=O)CC(CCc3ccc(O)cc3)(c3ccc(O)cc3)OC2=O)c(C(C)(C)C)cc1CO` (stereo not drawn) [3-{[2-tert-butyl-4-(hydroxymethyl)-5-methylphenyl]sulfanyl}-4-hydroxy-6-(4-hydroxyphenyl)-6-[2-(4-hydroxyphenyl)ethyl]-5,6-dihydro-2H-pyran-2-one]: the pIC50 is 6.92.

`Cc1cc(SC2C(=O)CC(CCc3cccc(O)c3)(c3ccccc3)OC2=O)c(C(C)(C)C)cc1CO` (stereo not drawn) [3-{[2-tert-butyl-4-(hydroxymethyl)-5-methylphenyl]sulfanyl}-4-hydroxy-6-[2-(3-hydroxyphenyl)ethyl]-6-phenyl-5,6-dihydro-2H-pyran-2-one] had a negative logarithm of the IC50 (pIC50) of 8.60.

The molecule `Cc1cc(SC2C(=O)CC(CCc3ccc(O)cc3)(C(C)C)OC2=O)c(C(C)(C)C)cc1CO` (stereo not drawn) [3-{[2-tert-butyl-4-(hydroxymethyl)-5-methylphenyl]sulfanyl}-4-hydroxy-6-[2-(4-hydroxyphenyl)ethyl]-6-(propan-2-yl)-5,6-dihydro-2H-pyran-2-one] had a pIC50 of 8.44.

Turning to `Cc1cc(SC2C(=O)CC(CCc3ccccc3)(c3ccc(OCCO)cc3)OC2=O)c(C(C)(C)C)cc1CO` (stereo not drawn) [3-{[2-tert-butyl-4-(hydroxymethyl)-5-methylphenyl]sulfanyl}-4-hydroxy-6-[4-(2-hydroxyethoxy)phenyl]-6-(2-phenylethyl)-5,6-dihydro-2H-pyran-2-one], the pIC50 was 8.85.

For `COCc1cc(C(C)(C)C)c(SC2C(=O)CC(CCc3ccccc3)(c3ccc(OCCO)cc3)OC2=O)cc1C` (stereo not drawn) [3-{[2-tert-butyl-4-(methoxymethyl)-5-methylphenyl]sulfanyl}-4-hydroxy-6-[4-(2-hydroxyethoxy)phenyl]-6-(2-phenylethyl)-5,6-dihydro-2H-pyran-2-one], the pIC50 was 8.35. Against the preceding molecule, the pIC50 is 0.50 log units lower.

`Cc1ccc(C(C)(C)C)c(SC2C(=O)CC(CCc3ccccc3)(c3ccccc3)OC2=O)c1` (stereo not drawn) [4-Hydroxy-5,6-dihydropyrone deriv. 49] showed a pIC50 of 7.46.

Molecule `Cc1ccc(C(C)(C)C)c(SC2C(=O)CC(CCc3ccccc3)(c3ccc(N)cc3)OC2=O)c1` (stereo not drawn) [6-(4-aminophenyl)-3-[(2-tert-butyl-5-methylphenyl)sulfanyl]-4-hydroxy-6-(2-phenylethyl)-5,6-dihydro-2H-pyran-2-one] had a pIC50 of 7.49. The pIC50 values of the last two molecules are within 0.2 log units of each other.

Take `Cc1cc(SC2C(=O)CC(CCc3cccc(N)c3)(c3ccccc3)OC2=O)c(C(C)(C)C)cc1CO` (stereo not drawn) [6-[2-(3-aminophenyl)ethyl]-3-{[2-tert-butyl-4-(hydroxymethyl)-5-methylphenyl]sulfanyl}-4-hydroxy-6-phenyl-5,6-dihydro-2H-pyran-2-one]: the pIC50 was 8.40. This pIC50 lies 0.91 log units higher than the previous one.

`Cc1ccc(C(C)(C)C)c(SC2C(=O)CC(CCc3ccc(N)cc3)(c3ccccc3)OC2=O)c1` (stereo not drawn) [6-[2-(4-aminophenyl)ethyl]-3-[(2-tert-butyl-5-methylphenyl)sulfanyl]-4-hydroxy-6-phenyl-5,6-dihydro-2H-pyran-2-one]: the pIC50 was 7.62.

`Cc1cc(SC2C(=O)CC(CCc3ccc(N)cc3)(C(C)C)OC2=O)c(C(C)(C)C)cc1CO` (stereo not drawn) [6-[2-(4-aminophenyl)ethyl]-3-{[2-tert-butyl-4-(hydroxymethyl)-5-methylphenyl]sulfanyl}-4-hydroxy-6-(propan-2-yl)-5,6-dihydro-2H-pyran-2-one]: the pIC50 was 8.57.

As for `Cc1ccc(C(C)(C)C)c(SC2C(=O)CC(CCc3ccc(O)cc3)(c3ccccc3)OC2=O)c1` (stereo not drawn) [PD 178390 Analog 1], the pIC50 was 7.96.

`Cc1cc(SC2C(=O)CC(C)(CCc3ccc(O)cc3)OC2=O)c(C(C)(C)C)cc1CO` (stereo not drawn) [PD 178390 Analog 12]: the pIC50 is 8.37.

On to `Cc1cc(SC2C(=O)CC(CCc3ccc(O)cc3)(C3CCCCC3)OC2=O)c(C(C)(C)C)cc1CO` (stereo not drawn) [PD 178390 Analog 21], for which the pIC50 is 8.39.

Consider `Cc1cc(SC2C(=O)CC(CCc3ccc(N)cc3)(c3ccccc3)OC2=O)c(C(C)(C)C)cc1CO` (stereo not drawn) [PD 178390 Analog 33], for which the pIC50 was 8.51.

In turn, `Cc1cc(SC2C(=O)CC(CCc3ccc(N)cc3)(C3CCCCC3)OC2=O)c(C(C)(C)C)cc1CO` (stereo not drawn) [PD 178390 Analog 36] showed a pIC50 of 8.49. This pIC50 and that of the molecule before are within 0.2 log units of each other.

On to `Cc1cc(SC2C(=O)CC(CCc3ccccc3)(c3ccccc3)OC2=O)c(C(C)(C)C)cc1CO` (stereo not drawn) [PD 178390 Analog 38], for which the pIC50 was 8.18.

Turning to `Cc1cc(SC2C(=O)CC(CCc3ccccc3)(c3ccccc3)OC2=O)c(C(C)(C)C)cc1OCCO` (stereo not drawn) [PD 178390 Analog 41], the pIC50 was 8.17. This pIC50 and that of the molecule before are within 0.2 log units of each other.

These data come from BindingDB's records for doi:10.1021/jm970522y (Parke-Davis Pharmaceutical Research, 1997).
